Laboratory results published in patent US9926281B2 (priority 2014, dated 2018).

How the values were obtained:
human ADAMTS-5 = human ADAMTS-5 (Homo sapiens (Human), UniProt Q9UNA0); conditions: read-out: hADAMTS-5 potency IC50
Procedure: Finally, the fluorescence is read on the Envision (Perkin Elmer) after an incubation of 90 min at 37° C.

human TACE = human TACE (Homo sapiens (Human), UniProt P78536); conditions: read-out: TACE potency IC50
human MMP13 = human MMP13 (Homo sapiens (Human), UniProt P45452); conditions: read-out: hMMP-13 potency IC50
Procedure: Human MMP13 is preactivated by incubated the enzyme in the same buffer complemented with 1 mM freshly prepared p-Aminophenylmercuric acetate (AMPA) for 1 hour at 37° C.

human MMP14 = human MMP14 (Homo sapiens (Human), UniProt P50281); conditions: read-out: hMMP-14 potency IC50

human TACE, sequence (P78536 whole entry, looked up, change not shown): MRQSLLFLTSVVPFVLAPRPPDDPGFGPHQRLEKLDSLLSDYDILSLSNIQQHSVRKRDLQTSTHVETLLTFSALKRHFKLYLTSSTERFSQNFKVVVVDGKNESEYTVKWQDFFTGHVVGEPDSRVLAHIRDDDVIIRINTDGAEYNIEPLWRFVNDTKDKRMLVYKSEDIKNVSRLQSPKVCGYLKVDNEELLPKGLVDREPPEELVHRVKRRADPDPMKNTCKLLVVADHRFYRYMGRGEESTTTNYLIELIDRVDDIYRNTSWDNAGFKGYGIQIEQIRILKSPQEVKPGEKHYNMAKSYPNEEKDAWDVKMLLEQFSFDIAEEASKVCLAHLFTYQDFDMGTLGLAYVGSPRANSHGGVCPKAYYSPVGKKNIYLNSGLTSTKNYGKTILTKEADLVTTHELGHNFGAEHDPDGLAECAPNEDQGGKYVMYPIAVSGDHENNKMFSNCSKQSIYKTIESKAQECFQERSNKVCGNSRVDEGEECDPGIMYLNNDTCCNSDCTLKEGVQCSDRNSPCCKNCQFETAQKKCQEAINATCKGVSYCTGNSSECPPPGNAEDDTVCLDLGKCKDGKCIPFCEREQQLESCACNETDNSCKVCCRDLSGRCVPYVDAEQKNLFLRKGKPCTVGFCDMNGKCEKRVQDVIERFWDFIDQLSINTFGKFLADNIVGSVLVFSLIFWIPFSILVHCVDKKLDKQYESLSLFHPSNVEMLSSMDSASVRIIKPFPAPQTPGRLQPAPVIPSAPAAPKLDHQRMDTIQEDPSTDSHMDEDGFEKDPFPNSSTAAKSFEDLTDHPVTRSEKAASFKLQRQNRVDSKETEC
human ADAMTS-5, sequence (Q9UNA0 262-930): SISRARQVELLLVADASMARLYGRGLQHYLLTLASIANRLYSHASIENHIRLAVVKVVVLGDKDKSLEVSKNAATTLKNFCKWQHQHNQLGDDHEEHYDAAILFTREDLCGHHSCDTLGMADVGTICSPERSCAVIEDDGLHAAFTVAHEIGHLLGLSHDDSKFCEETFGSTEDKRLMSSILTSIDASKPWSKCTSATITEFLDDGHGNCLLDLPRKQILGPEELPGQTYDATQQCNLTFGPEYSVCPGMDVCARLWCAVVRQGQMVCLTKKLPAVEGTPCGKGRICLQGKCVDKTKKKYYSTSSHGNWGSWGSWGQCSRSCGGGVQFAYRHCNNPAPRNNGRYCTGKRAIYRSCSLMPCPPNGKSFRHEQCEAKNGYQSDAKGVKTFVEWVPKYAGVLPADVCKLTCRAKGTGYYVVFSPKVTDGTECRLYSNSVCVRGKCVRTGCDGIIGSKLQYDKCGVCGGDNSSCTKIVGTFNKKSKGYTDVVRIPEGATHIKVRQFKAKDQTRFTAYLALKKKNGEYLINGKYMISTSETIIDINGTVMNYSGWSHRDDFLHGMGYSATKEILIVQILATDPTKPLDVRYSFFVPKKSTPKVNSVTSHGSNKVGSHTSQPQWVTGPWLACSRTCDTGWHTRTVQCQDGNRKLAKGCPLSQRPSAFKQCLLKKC

SMILES | IC50 (human ADAMTS-5) [nM] | IC50 (human TACE) [nM] | IC50 (human MMP13) [nM] | IC50 (human MMP14) [nM]
CC(=O)NCC1(CCC(=O)N2CCN(c3cc(Cl)cc(Cl)c3)CC2)NC(=O)NC1=O (stereo not shown) [Cpd 223, N-[[4-[3-[4-(3,5-dichlorophenyl)piperazin-1-yl]-3-oxo-propyl]-2,5-dioxo-imidazolidin-4-yl]methyl]acetamide] | 70 | > 4000 | > 20000 | > 20000
COCC1(CC(C)C(=O)N2CCN(c3ccc(F)c(F)c3)[C@@H](C)C2)NC(=O)NC1=O (stereo partly drawn) [compound 226, 5-[3-[(S)-4-(3,4-difluorophenyl)-3-methyl-piperazin-1-yl]-2-methyl-3-oxo-propyl]-5-(methoxymethyl)imidazolidine-2,4-dione] | 22 | > 4000 | 3270 | 978
COCC1(CC(C)C(=O)N2CCN(c3cc(F)ccc3C)[C@@H](C)C2)NC(=O)NC1=O (stereo partly drawn) [compound 228, 5-[3-[(3S)-4-(5-fluoro-2-methyl-phenyl)-3-methyl-piperazin-1-yl]-2-methyl-3-oxo-propyl]-5-(methoxymethyl)imidazolidine-2,4-dione] | 109 | > 4000 | > 4000 | > 20000
COCC1(CC(C)C(=O)N2CCN(c3cccc(F)c3)[C@@H](C)C2)NC(=O)NC1=O (stereo partly drawn) [compound 229, 5-[3-[(3S)-4-(3-fluorophenyl)-3-methyl-piperazin-1-yl]-2-methyl-3-oxo-propyl]-5-(methoxymethyl)imidazolidine-2,4-dione] | 31 | > 4000 | 3850 | 682
COCC1(CC(C)C(=O)N2CCN(c3cc(F)ccc3C)CC2)NC(=O)NC1=O (stereo not shown) [compound 230, 5-[3-[4-(5-fluoro-2-methyl-phenyl)piperazin-1-yl]-2-methyl-3-oxo-propyl]-5-(methoxymethyl)imidazolidine-2,4-dione] | 24 | 207 | > 20000 | > 20000
COCC1(CC(C)C(=O)N2CCN(c3cccc(Cl)c3C)[C@@H](C)C2)NC(=O)NC1=O (stereo partly drawn) [compound 232, 5-[3-[(3S)-4-(3-chloro-2-methyl-phenyl)-3-methyl-piperazin-1-yl]-2-methyl-3-oxo-propyl]-5-(methoxymethyl)imidazolidine-2,4-dione] | 47 | > 4000 | > 20000 | > 20000
CC(CC1(C2CN(C(=O)OC(C)(C)C)C2)NC(=O)NC1=O)C(=O)N1CCN(c2ccc(F)c(F)c2)CC1 (stereo not shown) [compound 234, tert-butyl 3-[4-[3-[4-(3,4-difluorophenyl)piperazin-1-yl]-2-methyl-3-oxo-propyl]-2,5-dioxo-imidazolidin-4-yl]azetidine-1-carboxy late] | 28 | > 4000 | 5.6 | 7
C[C@H]1CN(C(=O)CCC2(c3cccnc3)NC(=O)NC2=O)CCN1c1cccc(F)c1 (stereo partly drawn) [compound 319, 5-[3-[(3S)-4-(3-fluorophenyl)-3-methyl-piperazin-1-yl]-3-oxo-propyl]-5-(3-pyridyl)imidazolidine-2,4-dione] | 94 | > 4000 | – | > 4000
C[C@H]1CN(C(=O)CCC2(c3cccnc3)NC(=O)NC2=O)CCN1c1cc(F)cc(F)c1 (stereo partly drawn) [compound 320, 5-[3-[(3S)-4-(3,5-difluorophenyl)-3-methyl-piperazin-1-yl]-3-oxo-propyl]-5-(3-pyridyl)imidazolidine-2,4-dione] | 48 | > 4000 | – | > 20000
C[C@H]1CN(C(=O)CCC2(c3cnccn3)NC(=O)NC2=O)CCN1c1cc(F)cc(Cl)c1 (stereo partly drawn) [compound 326, 5-[3-[(3S)-4-(3-chloro-5-fluoro-phenyl)-3-methyl-piperazin-1-yl]-3-oxo-propyl]-5-pyrazin-2-yl-imidazolidine-2,4-dione] | 52 | > 4000 | – | > 4000
C[C@H]1CN(C(=O)CCC2(c3cnccn3)NC(=O)NC2=O)CCN1c1cc(F)cc(F)c1 (stereo partly drawn) [compound 327, 5-[3-[(3S)-4-(3,5-difluorophenyl)-3-methyl-piperazin-1-yl]-3-oxo-propyl]-5-pyrazin-2-yl-imidazolidine-2,4-dione] | 45 | > 4000 | – | > 4000
C[C@H]1CN(C(=O)CCC2(c3cncnc3)NC(=O)NC2=O)CCN1c1cc(F)cc(F)c1 (stereo partly drawn) [compound 332, 5-[3-[(3S)-4-(3,5-difluorophenyl)-3-methyl-piperazin-1-yl]-3-oxo-propyl]-5-pyrimidin-5-yl-imidazolidine-2,4-dione] | 61 | > 20000 | – | 378
C[C@@H](CC1(C2CC2)NC(=O)NC1=O)C(=O)N1CCN(c2cccc(-c3cn[nH]c3)c2)[C@@H](C)C1 (stereo partly drawn) [compound 339, 5-cyclopropyl-5-[(2S)-2-methyl-3-[(3S)-3-methyl-4-[3-(1H-pyrazol-4-yl)phenyl]piperazin-1-yl]-3-oxo-propyl]imidazolidine-2,4-dione] | 33 | > 4000 | – | 1230
Cc1cncc(N2CCN(C(=O)C(C)CC3(C4CC4)NC(=O)NC3=O)C[C@@H]2C)c1 (stereo partly drawn) [compound 342, 5-cyclopropyl-5-[2-methyl-3-[(3S)-3-methyl-4-(5-methyl-3-pyridyl)piperazin-1-yl]-3-oxo-propyl]imidazolidine-2,4-dione] | 39 | > 4000 | – | 2600
C[C@H]1CN(C(=O)CCC2(c3ccccn3)NC(=O)NC2=O)CCN1c1cc(F)cc(Cl)c1 (stereo partly drawn) [compound 346, 5-[3-[(3S)-4-(3-chloro-5-fluoro-phenyl)-3-methyl-piperazin-1-yl]-3-oxo-propyl]-5-(2-pyridyl)imidazolidine-2,4-dione] | 37 | > 4000 | – | > 4000
C[C@H]1CN(C(=O)CCC2(c3cnccn3)NC(=O)NC2=O)CCN1c1cccc(F)c1 (stereo partly drawn) [compound 350, 5-[3-[(3S)-4-(3-fluorophenyl)-3-methyl-piperazin-1-yl]-3-oxo-propyl]-5-pyrazin-2-yl-imidazolidine-2,4-dione] | 62 | > 20000 | – | 1310
CC(CC1(C2CC2)NC(=O)NC1=O)C(=O)N1CCN(c2cccnc2)[C@@H](C)C1 (stereo partly drawn) [compound 351, 5-cyclopropyl-5-[2-methyl-3-[(3S)-3-methyl-4-(3-pyridyl)piperazin-1-yl]-3-oxo-propyl]imidazolidine-2,4-dione] | 35 | > 20000 | – | 3840
C[C@H]1CN(C(=O)CC[C@@]2(C3CC3)NC(=O)NC2=O)CCN1c1cc(F)cc(-c2cn[nH]c2)c1 [compound 357, (5S)-5-cyclopropyl-5-[3-[(3S)-4-[3-fluoro-5-(1H-pyrazol-4-yl)phenyl]-3-methyl-piperazin-1-yl]-3-oxo-propyl]imidazolidine-2,4-dione] | 25 | > 4000 | – | > 20000
CCC1(C[C@H](C)C(=O)N2CCN(c3cncc(Cl)c3)[C@@H](C)C2)NC(=O)NC1=O (stereo partly drawn) [compound 359, 5-[(2S)-3-[4-(5-chloro-3-pyridyl)-3-methyl-piperazin-1-yl]-2-methyl-3-oxo-propyl]-5-ethyl-imidazolidine-2,4-dione] | 83 | > 12000 | – | 978
CC(CC1(C)NC(=O)NC1=O)C(=O)N1CCN(c2ccc(F)cc2)[C@@H](C)C1 (stereo partly drawn) [compound 365, 5-[3-[(3S)-4-(4-fluorophenyl)-3-methyl-piperazin-1-yl]-2-methyl-3-oxo-propyl]-5-methyl-imidazolidine-2,4-dione] | 72 | > 9330 | – | > 20000
Cc1cc(C2(CCC(=O)N3CCN(c4cc(F)cc(F)c4)[C@@H](C)C3)NC(=O)NC2=O)ccn1 (stereo partly drawn) [compound 367, 5-[3-[(3S)-4-(3,5-difluorophenyl)-3-methyl-piperazin-1-yl]-3-oxo-propyl]-5-(2-methyl-4-pyridyl)imidazolidine-2,4-dione] | 44 | > 4000 | – | > 20000
CC(CC1(C)NC(=O)NC1=O)C(=O)N1CCN(c2cccc(-c3cn[nH]c3)c2)[C@@H](C)C1 (stereo partly shown) [compound 371] | 42 | > 3730 | – | 682
C[C@@H](C[C@@]1(C)NC(=O)NC1=O)C(=O)N1CCN(c2cc(F)cc(-c3cn[nH]c3)c2)[C@@H](C)C1 [compound 375, 5-[3-[(3S)-4-[3-fluoro-5-(1H-pyrazol-4-yl)phenyl]-3-methyl-piperazin-1-yl]-2-methyl-3-oxo-propyl]-5-methyl-imidazolidine-2,4-dione] | 30 | 1130 | – | > 20000
C[C@H]1CN(C(=O)CCC2(c3cn(C)cn3)NC(=O)NC2=O)CCN1c1cc(F)cc(Cl)c1 (stereo partly drawn) [compound 389, 5-[3-[(3S)-4-(3-chloro-5-fluoro-phenyl)-3-methyl-piperazin-1-yl]-3-oxo-propyl]-5-(1-methylimidazol-4-yl)imidazolidine-2,4-dione] | 40 | > 4000 | – | > 20000
Cc1nc(C2(CCC(=O)N3CCN(c4cc(F)cc(F)c4)[C@@H](C)C3)NC(=O)NC2=O)c(C)o1 (stereo partly drawn) [compound 396, 5-[3-[(3S)-4-(3,5-difluorophenyl)-3-methyl-piperazin-1-yl]-3-oxo-propyl]-5-(2,5-dimethyloxazol-4-yl)imidazolidine-2,4-dione] | 53 | > 4000 | – | 7
C[C@H]1CN(C(=O)CCC2(c3cnn(C)c3)NC(=O)NC2=O)CCN1c1cc(F)cc(F)c1 (stereo partly drawn) [compound 397, 5-[3-[(3S)-4-(3,5-difluorophenyl)-3-methyl-piperazin-1-yl]-3-oxo-propyl]-5-(1-methylpyrazol-4-yl)imidazolidine-2,4-dione] | 37 | > 4000 | – | 26
